Values of other authors in patent US9011898B2, “Composition for active principles delivery containing a fatty acid excipient” (CID S.p.A., priority 2010, dated 2015).

Settings: aqueous solutions

Stability in aqueous environments at neutral or basic pH with respect to acidic pH: less stable
SMILES: CO[C@H]1C[C@@H]2CC[C@@H](C)[C@@](O)(O2)C(=O)C(=O)N2CCCC[C@H]2C(=O)O[C@H]([C@H](C)C[C@@H]2CC[C@@H](O)[C@H](OC)C2)CC(=O)[C@H](C)/C=C(\C)[C@@H](O)[C@@H](OC)C(=O)[C@H](C)C[C@H](C)/C=C/C=C/C=C/1C [Sirolimus]
